Data reported in US20090192048A1, “METHOD OF PRODUCING A […] AGENT FOR BINDING A LIGAND” (priority 2005, published 2009).

Assay: Retention of peptides 2DOS-1 to 2DOS-16 on a hydrophobic surface (polypropylene microtitre plate wells), water wash
Type: physicochemical
Conditions: 400V scan; 100 μl of 10 μM peptide before drying and washing
Protocol: The retention of peptides 2DOS-1 to 2DOS-16 on a hydrophobic surface (the wells of a polypropylene microtitre plate) was then investigated.
(§1) 10 mM tris-HCl (pH 8.0) in 50% (v/v) aqueous acetonitrile was used as the solvent for the peptides and for TAMRA.
100 μl aliquots of 10 μM peptides 2DOS-1 to 2DOS-16 and 10 μM TAMRA were placed in the wells of a Costar microtitre plate as shown in FIG. 13:
(§2) The microtitre plate was imaged at 200 μm resolution on a Typhoon Trio Plus variable mode imager (Amersham Biosciences) with the green (532 nm) laser and the 580 BP 30 filter at the PMT voltages indicated below and at normal sensitivity. The scan height was set at +3 mm and the sample was pressed during scanning.
The peptides were allowed to evaporate to dryness overnight in the dark and the microtitre plate was again scanned as described above.
The wells were then washed ten times with 250 μl of water.
The residual surface-bound peptides were finally resuspended in 100 μl of 10 mM tris-HCl (pH 8.0) in 50% (v/v) aqueous acetonitrile and the microtitre plate was again scanned as described above.
(§3) The fluorescence images were analysed using ImageQuant TL v2003.03 (Amersham Biosciences).
Quantification data (using the data from the 400V scan) is given in Table 2 and shown graphically in FIG. 15.

Substance	Initial fluorescence (×10^3)
N-TAMPA-Norleu- Asp-Norleu-Asp- Norleu-Asp-Norleu- Asp-Norleu-C [Peptide 2DOS-9]	34,587 ×10^3
N-TAMRA-Asp- Norleu- Asp-Norleu-Asp- Norleu-Asp-C [Peptide 2DOS-13]	26,181 ×10^3

Same assay, conditions: 400V scan; dried, washed ten times with 250 μl water, resuspended

Substance	Recovered fluorescence (×10^3)
N-TAMPA-Norleu- Asp-Norleu-Asp- Norleu-Asp-Norleu- Asp-Norleu-C [Peptide 2DOS-9]	2,382 ×10^3
N-TAMRA-Asp- Norleu- Asp-Norleu-Asp- Norleu-Asp-C [Peptide 2DOS-13]	25 ×10^3

Assay: Retention of peptides on Greiner polystyrene V-bottom wells
Type: physicochemical
Conditions: 400V scan
Protocol: (§4) The retention of peptides 2DOS-1 to 2DOS-16 (see above) on polypropylene and polystyrene surfaces was compared:
(§5) 5 mM tris-HCl (pH 8.0) in 75% (v/v) aqueous acetonitrile was used as the solvent for the peptides and for TAMRA.
(§6) 20 μl aliquots of 5 μM peptides 2DOS-1 to 2DOS-16 and 5 μM TAMRA were pipetted into the wells of a Costar V-bottomed polypropylene microtitre plate, a Greiner V-bottomed polypropylene microtitre plate, and a Greiner V-bottomed polystyrene microtitre plate according to the scheme shown in FIG. 26:
(§7) The peptide samples were allowed to evaporate to dryness in the dark.
(§8) The peptide samples in the top two rows of the microtitre plates were then incubated for 15 minutes at room temperature in 250 μl of 1 M NaCl in 10 mM tris-HCl (pH 8.0).
(§9) After incubation, the wash buffer was pipetted up and down eight times in the well before removing the supernatant.
(§10) The washed and untreated peptide samples were then resuspended in 50 μl of 10 mM tris-HCl (pH 8.0) in 50% (v/v) aqueous acetonitrile.
as §2, with “plates were” for “plate was”
as §3

Substance	Percent retention
N-TAMPA-Norleu- Asp-Norleu-Asp- Norleu-Asp-Norleu- Asp-Norleu-C [Peptide 2DOS-9]	10%
N-TAMRA-Asp- Norleu- Asp-Norleu-Asp- Norleu-Asp-C [Peptide 2DOS-13]	9%

Same assay, conditions: 400V scan, unwashed

Substance	Untreated fluorescence
N-TAMPA-Norleu- Asp-Norleu-Asp- Norleu-Asp-Norleu- Asp-Norleu-C [Peptide 2DOS-9]	626,304
N-TAMRA-Asp- Norleu- Asp-Norleu-Asp- Norleu-Asp-C [Peptide 2DOS-13]	708,162

Same assay, conditions: 400V scan, washed 15 minutes in 1 M NaCl in 10 mM tris-HCl (pH 8.0)

Substance	Retained fluorescence
N-TAMPA-Norleu- Asp-Norleu-Asp- Norleu-Asp-Norleu- Asp-Norleu-C [Peptide 2DOS-9]	62,023
N-TAMRA-Asp- Norleu- Asp-Norleu-Asp- Norleu-Asp-C [Peptide 2DOS-13]	62,590

Assay: Retention of peptides in V-bottomed polypropylene wells
Type: physicochemical
Conditions: V-bottom wells; 500V scan
Protocol: (§11) The retention of peptides 2DOS-1 to 2DOS-16 (see above) on polypropylene wells of different geometries was investigated:
as §1
(§12) 1 μl aliquots of 10 μM peptides 2DOS-1 to 2DOS-16 and 10 μM TAMRA were pipetted into the wells of a Costar V-bottomed polypropylene microtitre plate and a Greiner flat-bottomed polypropylene microtitre plate according to the following scheme as shown in FIG. 22:
as §7
(§13) The peptide samples in the top two rows of the microtitre plates were then incubated for 15′ minutes at room temperature in 250 μl of 1 M NaCl in 10 mM tris-HCl (pH 8.0).
as §9, §10
as §2, with “plates were” for “plate was”, “the platen” for “+3 mm”, “during,” for “during”
as §3

Substance	Percent retention
N-TAMPA-Norleu- Asp-Norleu-Asp- Norleu-Asp-Norleu- Asp-Norleu-C [Peptide 2DOS-9]	14%
N-TAMRA-Asp- Norleu- Asp-Norleu-Asp- Norleu-Asp-C [Peptide 2DOS-13]	11%

Same assay, conditions: V-bottom wells; 500V scan; unwashed

Substance	Untreated fluorescence
N-TAMPA-Norleu- Asp-Norleu-Asp- Norleu-Asp-Norleu- Asp-Norleu-C [Peptide 2DOS-9]	11,662,691
N-TAMRA-Asp- Norleu- Asp-Norleu-Asp- Norleu-Asp-C [Peptide 2DOS-13]	7,623,227

Same assay, conditions: V-bottom wells; 500V scan; washed 15 minutes in 1 M NaCl in 10 mM tris-HCl (pH 8.0)

Substance	Retained fluorescence
N-TAMPA-Norleu- Asp-Norleu-Asp- Norleu-Asp-Norleu- Asp-Norleu-C [Peptide 2DOS-9]	1,608,482
N-TAMRA-Asp- Norleu- Asp-Norleu-Asp- Norleu-Asp-C [Peptide 2DOS-13]	806,022

Assay: Retention of peptides on Costar polypropylene V-bottom wells
Type: physicochemical
Conditions: 400V scan
Protocol: as §4, §5, §6, §7, §8, §9, §10
as §2, with “plates were” for “plate was”
as §3

Substance	Percent retention
N-TAMPA-Norleu- Asp-Norleu-Asp- Norleu-Asp-Norleu- Asp-Norleu-C [Peptide 2DOS-9]	17%
N-TAMRA-Asp- Norleu- Asp-Norleu-Asp- Norleu-Asp-C [Peptide 2DOS-13]	8%

Same assay, conditions: 400V scan, unwashed

Substance	Untreated fluorescence
N-TAMPA-Norleu- Asp-Norleu-Asp- Norleu-Asp-Norleu- Asp-Norleu-C [Peptide 2DOS-9]	7,102,251
N-TAMRA-Asp- Norleu- Asp-Norleu-Asp- Norleu-Asp-C [Peptide 2DOS-13]	4,886,617

Same assay, conditions: 400V scan, washed 15 minutes in 1 M NaCl in 10 mM tris-HCl (pH 8.0)

Substance	Retained fluorescence
N-TAMPA-Norleu- Asp-Norleu-Asp- Norleu-Asp-Norleu- Asp-Norleu-C [Peptide 2DOS-9]	1,184,648
N-TAMRA-Asp- Norleu- Asp-Norleu-Asp- Norleu-Asp-C [Peptide 2DOS-13]	387,738

Assay: Retention of peptides in flat-bottomed polypropylene wells
Type: physicochemical
Conditions: flat-bottom wells; 500V scan
Protocol: as §11, §1, §12, §7, §13, §9, §10
as §2, with “plates were” for “plate was”, “the platen” for “+3 mm”, “during,” for “during”
as §3

Substance	Percent retention
N-TAMPA-Norleu- Asp-Norleu-Asp- Norleu-Asp-Norleu- Asp-Norleu-C [Peptide 2DOS-9]	16%
N-TAMRA-Asp- Norleu- Asp-Norleu-Asp- Norleu-Asp-C [Peptide 2DOS-13]	17%

Same assay, conditions: flat-bottom wells; 500V scan; unwashed

Substance	Untreated fluorescence
N-TAMPA-Norleu- Asp-Norleu-Asp- Norleu-Asp-Norleu- Asp-Norleu-C [Peptide 2DOS-9]	13,456,698
N-TAMRA-Asp- Norleu- Asp-Norleu-Asp- Norleu-Asp-C [Peptide 2DOS-13]	12,935,739

Same assay, conditions: flat-bottom wells; 500V scan; washed 15 minutes in 1 M NaCl in 10 mM tris-HCl (pH 8.0)

Substance	Retained fluorescence
N-TAMPA-Norleu- Asp-Norleu-Asp- Norleu-Asp-Norleu- Asp-Norleu-C [Peptide 2DOS-9]	2,148,849
N-TAMRA-Asp- Norleu- Asp-Norleu-Asp- Norleu-Asp-C [Peptide 2DOS-13]	2,162,164

Assay: Retention of peptides on Greiner polypropylene V-bottom wells
Type: physicochemical
Conditions: 400V scan
Protocol: as §4, §5, §6, §7, §8, §9, §10
as §2, with “plates were” for “plate was”
as §3

Substance	Percent retention
N-TAMPA-Norleu- Asp-Norleu-Asp- Norleu-Asp-Norleu- Asp-Norleu-C [Peptide 2DOS-9]	12%
N-TAMRA-Asp- Norleu- Asp-Norleu-Asp- Norleu-Asp-C [Peptide 2DOS-13]	10%

Same assay, conditions: 400V scan, unwashed

Substance	Untreated fluorescence
N-TAMPA-Norleu- Asp-Norleu-Asp- Norleu-Asp-Norleu- Asp-Norleu-C [Peptide 2DOS-9]	3,621,913
N-TAMRA-Asp- Norleu- Asp-Norleu-Asp- Norleu-Asp-C [Peptide 2DOS-13]	3,635,229

Same assay, conditions: 400V scan, washed 15 minutes in 1 M NaCl in 10 mM tris-HCl (pH 8.0)

Substance	Retained fluorescence
N-TAMPA-Norleu- Asp-Norleu-Asp- Norleu-Asp-Norleu- Asp-Norleu-C [Peptide 2DOS-9]	439,252
N-TAMRA-Asp- Norleu- Asp-Norleu-Asp- Norleu-Asp-C [Peptide 2DOS-13]	378,287
